Assays:
Type in all cases: physicochemical
[1] = Example 6: stability of free anthocyanidins delphinidin and malvidin at 37° C., pH 7.0, with/without GSH (HPLC); conditions: pH 7.0, 37° C.
Method: (§1) Sample a) 5 mg delphinine chloride (0.015 mmol) was transferred into a 100 ml flask, dissolved in 1 ml methanol and filled to volume with sodium phosphate buffer (5% [w/w], pH=7.0). The sample was kept with stirring at 37° C. Samples were taken immediately after dissolution, after 15 minutes, 1, 2, and 3 hours of incubation. The samples were acidified with formic acid to pH=1.0 and analyzed by HPLC.
as §1, with “b)” for “a)”, “malvidin” for “delphinine”, “(0.014” for “(0.015”, “dissolution and at” for “dissolution, after 15 minutes,”
(§2) Sample c) 5 mg delphinidine chloride (0.015 mmol) and 10 mg GSH (0.032 mmol) were transferred into a 100 ml flask, dissolved in 1 ml methanol and filled to volume with sodium phosphate buffer (5% [w/w], pH=7.0). The sample was kept with stirring at 37° C. Samples were taken at 15 minutes after dissolution and after 1, 2 and 3 hours of incubation. The samples were acidified with formic acid to pH=1.0 and analyzed by HPLC.
as §2, with “d)” for “c)”, “malvidin” for “delphinidine”, “(0.014” for “(0.015”, “taken” for “taken at”
(§3) Samples were prepared as outlined below in HPLC Analytical Method. Test stability samples were immediately acidified (to block degradation) and injected undiluted following the detailed description provided below.

[2] = Example 2: degradation over time of selected bilberry anthocyanosides at 37° C., pH 7.0, with/without GSH (HPLC); conditions: pH 7.0, 37° C.; for %-residual anthocyanosides (% left): 4.30 hours
Method: Sample a) 60 mg bilberry extract [37% anthocyanosides] (0.048 mmol expressed as cyanidin-3-O-glucoside) were added to a 100 ml, filled to volume with sodium phosphate buffer (5% [w/w], pH=7.0) and stirred until dissolution was complete. A 1 ml sample was immediately taken and acidified with formic acid to pH=1.0 and analyzed by HPLC for the content of anthocyanosides. The remaining solution was kept at 37° C. (water bath) with stirring and additional 1 ml samples (Blank Samples), representing unprotected degradation, were sampled every 15 minutes. The samples were analyzed for selected anthocyanosides by HPLC.
Sample b) 20 mg reduced L-glutathione (0.065 mmol) were added to a 100 ml flask with 60 ml sodium phosphate buffer (5% [w/w], pH=7.0) and stirred until dissolution was complete. 60 mg bilberry extract [37% anthocyanosides] (0.048 mmol expressed as cyanidin-3-O-glucoside) were added and the flask was filled to volume with sodium phosphate buffer (5% [w/w], pH=7.0) and kept at 37° C. (water bath) with stirring. Every 15 minutes, 1 ml samples were taken and analyzed for selected anthocyanosides by HPLC.
as §3
HPLC Analytical Method (Materials, Instruments and Methods): […]

[3] = Example 1: stability of bilberry extract anthocyanosides, 4 hours at 37° C., pH 7.0, with/without DHLA or GSH (HPLC)
Method: (0.048 mmol anthocyanosides expressed as cyanidin-3-O-glucoside) were added to a 100 ml flask and filled to volume with sodium phosphate buffer (5% [w/w], pH=7.0), and stirred until dissolution was complete. A 1 ml sample was taken immediately and acidified with formic acid to pH=1.0 and analyzed by HPLC for the content of anthocyanosides (Fresh Sample). The remaining solution was kept for 4 hours at 37° C. (water bath) with stirring. Thereafter another sample (Blank sample), representing unprotected degradation, was taken and acidified.
(0.048 mmol expressed as cyanidin-3-O-glucoside) were then added and the flask was filled to volume with sodium phosphate buffer (5% [w/w], pH=7.0) and kept for 4 hours at 37° C. (water bath) with stirring.
Quantitation: External standardization based on linear regression analysis. The response factors of all anthocyanosides separated is quantitified against cyanidin-3-O-glucoside.
Test solutions from incubation experiments (with/without cells and with/without stabilizing agents) were used for analysis after stabilization of anthocyanosides with formic acid. Samples were cleared by filtration prior to injection on to HPLC-system.

[4] = Example 9: stability of bilberry extract anthocyanosides, 4 hours at 37° C., pH 7.0, with/without L-cysteine
Method: Sample a) 60 mg bilberry extract [37% anthocyanosides] (0.048 mmol anthocyanosides expressed as cyanidin-3-O-glucoside) were added to a 100 ml flask with 60 ml sodium phosphate buffer (5% [w/w], pH=7.0), and stirred until dissolution was complete. A 1 ml sample was taken immediately and acidified with formic acid to pH=1.0 and analyzed by HPLC for the content of anthocyanosides (Fresh Sample). The remaining solution was kept for 4 hours at 37° C. (water bath) with stirring. Thereafter another sample (Blank sample), representing unprotected degradation, was taken and acidified.
Sample b) 20 mg L-cysteine […] were added to a 100 ml flask with 60 ml sodium phosphate buffer (5% [w/w], pH=7.0) and stirred until dissolution was complete. 60 mg bilberry extract [37% anthocyanosides] (0.048 mmol expressed as cyanidin-3-O-glucoside) were then added to the flask and stir to fully dissolve, then kept for 4 hours at 37° C. (water bath) with stirring.
After 4 hours, samples were taken and acidified immediately with formic acid to pH=1.0 and analyzed by HPLC for the content of anthocyanosides. Degradation is expressed as decrease in peak area of individual peaks (calculated as % left after 4 hours).
Samples were prepared as outlined above in the HPLC Analytical Method. Test stability samples were immediately acidified (to block degradation) and injected undiluted following the detailed description provided below.

[5] = 20 mg reduced L-glutathione, pH 7.0, 37° C., 4 hours
[6] = 30 mg dihydrolipoic acid, pH 7.0, 37° C., 4 hours
[7] = unprotected, pH 7.0, 37° C., 4 hours

SMILES: Oc1cc(O)c2cc(O)c(-c3cc(O)c(O)c(O)c3)[o+]c2c1 [Delphinidin]
- Peak Area ([1]; Blank, 0 hours): 48.6
- Peak Area ([1]; Blank, 0.25 hours): BLD
- Peak Area ([1]; Blank, 1 hour): BLD
- Peak Area ([1]; Blank, 2 hours): BLD
- Peak Area ([1]; Blank, 3 hours): BLD
- Peak Area ([1]; GSH 10 mg, 0.25 hours): BLD
- Peak Area ([1]; GSH 10 mg, 1 hour): BLD
- Peak Area ([1]; GSH 10 mg, 2 hours): BLD
- Peak Area ([1]; GSH 10 mg, 3 hours): BLD

SMILES: OC[C@H]1O[C@@H](Oc2cc3c(O)cc(O)cc3[o+]c2-c2cc(O)c(O)c(O)c2)[C@H](O)[C@@H](O)[C@H]1O [Dp-3O-Gal, Delphinidin 3-o-galactoside]
- Peak Area ([2]; Blank Sample, 1:15 h): 354.36
- Peak Area ([2]; Blank Sample, 4:15 h): 226.99
- Peak Area ([2]; Blank Sample, 4:30 h): 135.48
- Peak Area ([2]; Blank sample, 0:00 h): 699.51
- Peak Area ([2]; Blank sample, 0:15 h): 547.09
- Peak Area ([2]; Blank sample, 0:30 h): 603.54
- Peak Area ([2]; Blank sample, 0:45 h): 451.09
- Peak Area ([2]; Blank sample, 1:00 h): 467.23
- Peak Area ([2]; Blank sample, 1:45 h): 401.11
- Peak Area ([2]; Blank sample, 2:00 h): 356.25
- Peak Area ([2]; Blank sample, 2:15 h): 320.33
- Peak Area ([2]; Blank sample, 2:30 h): 262.70
- Peak Area ([2]; Blank sample, 2:45 h): 264.07
- Peak Area ([2]; Blank sample, 3:00 h): 288.65
- Peak Area ([2]; Blank sample, 3:15 h): 289.95
- Peak Area ([2]; Blank sample, 3:30 h): 237.41
- Peak Area ([2]; Blank sample, 4:00 h): 243.90
- %-residual anthocyanosides (% left) ([2]; Blank): 19%
- Peak Area ([2]; GSH Protected Sample (20 mg), 0:30 h): 674.83
- Peak Area ([2]; GSH Protected Sample (20 mg), 1:30 h): 618.45
- Peak Area ([2]; GSH Protected Sample (20 mg), 2:30 h): 528.71
- Peak Area ([2]; GSH Protected Sample (20 mg), 3:30 h): 553.82
- Peak Area ([2]; GSH Protected Sample (20 mg), 4:30 h): 531.62
- Peak Area ([2]; GSH Protected Sample (20 mg), 4:45 h): 478.52
- Peak Area ([2]; GSH protected sample (20 mg), 0:00 h): 731.12
- Peak Area ([2]; GSH protected sample (20 mg), 0:15 h): 739.50
- Peak Area ([2]; GSH protected sample (20 mg), 0:45 h): 598.57
- Peak Area ([2]; GSH protected sample (20 mg), 1:00 h): 652.53
- Peak Area ([2]; GSH protected sample (20 mg), 1:15 h): 648.70
- Peak Area ([2]; GSH protected sample (20 mg), 1:45 h): 609.47
- Peak Area ([2]; GSH protected sample (20 mg), 2:00 h): 583.66
- Peak Area ([2]; GSH protected sample (20 mg), 2:15 h): 592.13
- Peak Area ([2]; GSH protected sample (20 mg), 2:45 h): 560.24
- Peak Area ([2]; GSH protected sample (20 mg), 3:00 h): 562.10
- Peak Area ([2]; GSH protected sample (20 mg), 3:15 h): 562.39
- Peak Area ([2]; GSH protected sample (20 mg), 3:45 h): 495.67
- Peak Area ([2]; GSH protected sample (20 mg), 4:00 h): 563.95
- Peak Area ([2]; GSH protected sample (20 mg), 4:15 h): 540.10
- %-residual anthocyanosides (% left) ([2]; GSH-protected): 65%
- %-residual anthocyanosides (% left) ([2]; GSH-protected, listed as delphinidin-3-O-Galactose): 65%
- % left, GSH (4 hours) [3, 5]: 50.6%
- Peak Area, GSH (4 hours) [3, 5]: 331.3
- % left, DHLA (4 hours) [3, 6]: 60.5%
- Peak Area, DHLA (4 hours) [3, 6]: 395.8
- Peak Area, Fresh (0 hours) ([3]; bilberry extract 60 mg/100 ml sodium phosphate buffer pH 7.0, fresh sample): 654.4
- % left, Blank (4 hours) [3, 7]: 7.8%
- Peak Area, Blank (4 hours) [3, 7]: 50.9
- Peak Area, Fresh solution ([4]; bilberry extract 60 mg in buffer pH 7.0, fresh sample): 654.4
- % left, L-cysteine 20 mg ([4]; pH 7.0, 37° C., 4 hours): 50.6%
- Peak Area, L-cysteine 20 mg ([4]; pH 7.0, 37° C., 4 hours): 331.3
- % left, Blank [4, 7]: 7.8%
- Peak Area, Blank [4, 7]: 50.9

SMILES: COc1cc(-c2[o+]c3cc(O)cc(O)c3cc2O)cc(OC)c1O.[Cl-] [Malvidin]
- Peak Area ([1]; Blank, 0 hours): 1228
- Peak Area ([1]; Blank, 1 hour): 661.6
- Peak Area ([1]; Blank, 2 hours): 175.3
- Peak Area ([1]; Blank, 3 hours): 56.4
- Peak Area ([1]; GSH 10 mg, 1 hour): 530.1
- Peak Area ([1]; GSH 10 mg, 2 hours): 263.5
- Peak Area ([1]; GSH 10 mg, 3 hours): 5.6

Reference: patent US8623429B2, “Stabilized anthocyanin compositions” (Omnica GmbH, priority 2007, dated 2014)
